In patent US9469650B2, “Melampomagnolide B derivatives” (BOARD OF TRUSTEES OF THE UNIVERSITY OF ARKANSAS, priority 2013, dated 2016):

How the values were obtained:
UACC-257 = assay: panel of 60 human tumor cell lines, growth inhibition (Melanoma)
SF-268 = assay: panel of 60 human tumor cell lines, growth inhibition (CNS Cancer)
SNB-75 = assay: as above
HCT-116 = assay: panel of 60 human tumor cell lines, growth inhibition (Colon Cancer); conditions: for Percent Growth: HCT-116; for GI50: HCT-116, HCT-116
HCT-15 = assay: as above
HT29 = assay: as above; conditions: for Percent Growth: HT29
SW-620 = assay: as above; conditions: for GI50: SW-620, SW-620; for Percent Growth: SW-620
TK-10 = assay: panel of 60 human tumor cell lines, growth inhibition (Renal Cancer); conditions: for GI50: TK-10, TK-10; for Percent Growth: TK-10
HS 578T = assay: panel of 60 human tumor cell lines, growth inhibition (Breast Cancer); conditions: for Percent Growth: HS 578T
BT-549 = assay: as above
T-47D = assay: as above; conditions: for Percent Growth: T-47D
OVCAR-5 = assay: panel of 60 human tumor cell lines, growth inhibition (Ovarian Cancer)
A549/ATCC = assay: panel of 60 human tumor cell lines, growth inhibition (Non-Small Cell Lung Cancer); conditions: for Percent Growth: A549/ATCC
NCI-H322M = assay: as above
NCI-H522 = assay: as above

Compound: C=C1C(=O)O[C@H]2[C@H]1CC/C(COC(=O)NCCc1ccccn1)=C\CC[C@@]1(C)O[C@@H]21 [JVM 61, ((1aR,7aS,10aS,10bS,E)-1a-methyl-8-methylene-9-oxo-1a,2,3,6,7,7a,8,9,10a,10b-decahydrooxireno[2′,3′:9,10]cyclodeca[1,2-b]furan-5-yl)methyl-(2-(pyridin-2-yl)ethyl)carbamate]
- GI50 (UACC-257; Homo sapiens, UACC-257): 4.59 µM
- CC50 (UACC-257; Homo sapiens, UACC-257, read-out: LC50): 53.7 µM
- TGI (UACC-257; UACC-257): 1.95E−5
- Percent Growth (UACC-257; UACC-257, Log10 Concentration −4.0): −81%
- Percent Growth (UACC-257; UACC-257, Log10 Concentration −5.0): 33%
- Percent Growth (UACC-257; UACC-257, Log10 Concentration −6.0): 83%
- Percent Growth (UACC-257; UACC-257, Log10 Concentration −7.0): 92%
- Percent Growth (UACC-257; UACC-257, Log10 Concentration −8.0): 97%
- GI50 (SF-268; Homo sapiens, SF-268): 16.2 µM
- CC50 (SF-268; Homo sapiens, SF-268, read-out: LC50): 71.7 µM
- IC (TGI) (SF-268; Homo sapiens, SF-268, read-out: TGI): 34 µM
- Percent Growth (SF-268; SF-268, Log10 Concentration −4.0): −72%
- Percent Growth (SF-268; SF-268, Log10 Concentration −5.0): 82%
- Percent Growth (SF-268; SF-268, Log10 Concentration −6.0): 102%
- Percent Growth (SF-268; SF-268, Log10 Concentration −7.0): 109%
- Percent Growth (SF-268; SF-268, Log10 Concentration −8.0): 106%
- GI50 (SNB-75; Homo sapiens, SNB-75): 3.78 µM
- CC50 (SNB-75; Homo sapiens, SNB-75, read-out: LC50): 48.4 µM
- IC (TGI) (SNB-75; Homo sapiens, SNB-75, read-out: TGI): 18.6 µM
- Percent Growth (SNB-75; SNB-75, Log10 Concentration −4.0): −88%
- Percent Growth (SNB-75; SNB-75, Log10 Concentration −5.0): 32%
- Percent Growth (SNB-75; SNB-75, Log10 Concentration −6.0): 74%
- Percent Growth (SNB-75; SNB-75, Log10 Concentration −7.0): 76%
- Percent Growth (SNB-75; SNB-75, Log10 Concentration −8.0): 81%
- Percent Growth (HCT-116; Log10 Concentration −4.0): −99%
- Percent Growth (HCT-116; Log10 Concentration −5.0): −33%
- Percent Growth (HCT-116; Log10 Concentration −6.0): 82%
- Percent Growth (HCT-116; Log10 Concentration −7.0): 102%
- Percent Growth (HCT-116; Log10 Concentration −8.0): 99%
- GI50 (HCT-116; Homo sapiens): 1.59 µM
- GI50 (HCT-116; Homo sapiens, 5-dose assay): 1.89 µM
- CC50 (HCT-116; Homo sapiens, HCT-116, read-out: LC50): 17.9 µM
- IC (TGI) (HCT-116; Homo sapiens, HCT-116, read-out: TGI): 5.12 µM
- Percent Growth (HCT-15; HCT-15, Log10 Concentration −4.0): −81%
- Percent Growth (HCT-15; HCT-15, Log10 Concentration −5.0): 22%
- Percent Growth (HCT-15; HCT-15, Log10 Concentration −6.0): 89%
- Percent Growth (HCT-15; HCT-15, Log10 Concentration −7.0): 97%
- Percent Growth (HCT-15; HCT-15, Log10 Concentration −8.0): 98%
- GI50 (HCT-15; Homo sapiens, HCT-15): 3.5 µM
- CC50 (HCT-15; Homo sapiens, HCT-15, read-out: LC50): 50.1 µM
- IC (TGI) (HCT-15; Homo sapiens, HCT-15, read-out: TGI): 15.4 µM
- Percent Growth (HT29; Log10 Concentration −4.0): −78%
- Percent Growth (HT29; Log10 Concentration −5.0): 24%
- Percent Growth (HT29; Log10 Concentration −6.0): 110%
- Percent Growth (HT29; Log10 Concentration −7.0): 106%
- Percent Growth (HT29; Log10 Concentration −8.0): 104%
- GI50 (HT29; Homo sapiens, HT-29): 4.69 µM
- CC50 (HT29; Homo sapiens, HT-29, read-out: LC50): 53.1 µM
- IC (TGI) (HT29; Homo sapiens, HT-29, read-out: TGI): 17.2 µM
- GI50 (SW-620; Homo sapiens): 3.13 µM
- GI50 (SW-620; Homo sapiens, 5-dose assay): 3.13 µM
- CC50 (SW-620; Homo sapiens, SW-620, read-out: LC50): 54.5 µM
- IC (TGI) (SW-620; Homo sapiens, SW-620, read-out: TGI): 12.3 µM
- Percent Growth (SW-620; Log10 Concentration −4.0): −70%
- Percent Growth (SW-620; Log10 Concentration −5.0): 7%
- Percent Growth (SW-620; Log10 Concentration −6.0): 92%
- Percent Growth (SW-620; Log10 Concentration −7.0): 105%
- Percent Growth (SW-620; Log10 Concentration −8.0): 109%
- GI50 (TK-10; Homo sapiens): 3.13 µM
- GI50 (TK-10; Homo sapiens, 5-dose assay): 3.78 µM
- CC50 (TK-10; Homo sapiens, TK-10, read-out: LC50): 37.5 µM
- IC (TGI) (TK-10; Homo sapiens, TK-10, read-out: TGI): 12.9 µM
- Percent Growth (TK-10; Log10 Concentration −4.0): −96%
- Percent Growth (TK-10; Log10 Concentration −5.0): 12%
- Percent Growth (TK-10; Log10 Concentration −6.0): 102%
- Percent Growth (TK-10; Log10 Concentration −7.0): 104%
- Percent Growth (TK-10; Log10 Concentration −8.0): 101%
- Percent Growth (HS 578T; Log10 Concentration −4.0): −25%
- Percent Growth (HS 578T; Log10 Concentration −5.0): 28%
- Percent Growth (HS 578T; Log10 Concentration −6.0): 94%
- Percent Growth (HS 578T; Log10 Concentration −7.0): 96%
- Percent Growth (HS 578T; Log10 Concentration −8.0): 98%
- GI50 (HS 578T; Homo sapiens, Hs-578T): 4.66 µM
- CC50 (HS 578T; Homo sapiens, Hs-578T, read-out: LC50): ≥ 100 µM
- IC (TGI) (HS 578T; Homo sapiens, Hs-578T, read-out: TGI): 33.9 µM
- Percent Growth (BT-549; BT-549, Log10 Concentration −4.0): −95%
- Percent Growth (BT-549; BT-549, Log10 Concentration −6.0): 85%
- Percent Growth (BT-549; BT-549, Log10 Concentration −7.0): 96%
- Percent Growth (BT-549; BT-549, Log10 Concentration −8.0): 96%
- GI50 (BT-549; Homo sapiens, BT-549): 2.6 µM
- CC50 (BT-549; Homo sapiens, BT-549, read-out: LC50): 33.6 µM
- IC (TGI) (BT-549; Homo sapiens, BT-549, read-out: TGI): 10.1 µM
- GI50 (T-47D; Homo sapiens, T47D): 6.19 µM
- CC50 (T-47D; Homo sapiens, T47D, read-out: LC50): > 100 µM
- IC (TGI) (T-47D; Homo sapiens, T47D, read-out: TGI): 25 µM
- Percent Growth (T-47D; Log10 Concentration −4.0): −43%
- Percent Growth (T-47D; Log10 Concentration −5.0): 35%
- Percent Growth (T-47D; Log10 Concentration −6.0): 106%
- Percent Growth (T-47D; Log10 Concentration −7.0): 104%
- Percent Growth (T-47D; Log10 Concentration −8.0): 98%
- GI50 (OVCAR-5; Homo sapiens, OVCAR-5): 10.2 µM
- CC50 (OVCAR-5; Homo sapiens, OVCAR-5, read-out: LC50): 49.5 µM
- IC (TGI) (OVCAR-5; Homo sapiens, OVCAR-5, read-out: TGI): 22.5 µM
- Percent Growth (OVCAR-5; OVCAR-5, Log10 Concentration −4.0): −94%
- Percent Growth (OVCAR-5; OVCAR-5, Log10 Concentration −5.0): 51%
- Percent Growth (OVCAR-5; OVCAR-5, Log10 Concentration −6.0): 96%
- Percent Growth (OVCAR-5; OVCAR-5, Log10 Concentration −7.0): 97%
- Percent Growth (OVCAR-5; OVCAR-5, Log10 Concentration −8.0): 107%
- Percent Growth (A549/ATCC; Log10 Concentration −4.0): −54%
- Percent Growth (A549/ATCC; Log10 Concentration −5.0): 64%
- Percent Growth (A549/ATCC; Log10 Concentration −6.0): 6.7%
- Percent Growth (A549/ATCC; Log10 Concentration −8.0): 95%
- GI50 (A549/ATCC; Homo sapiens, A549): 13.1 µM
- CC50 (A549/ATCC; Homo sapiens, A549, read-out: LC50): 92 µM
- IC (TGI) (A549/ATCC; Homo sapiens, A549, read-out: TGI): 34.7 µM
- GI50 (NCI-H322M; Homo sapiens): 22.5 µM
- CC50 (NCI-H322M; Homo sapiens, read-out: LC50): > 100 µM
- IC (TGI) (NCI-H322M; Homo sapiens, read-out: TGI): 63.4 µM
- Percent Growth (NCI-H322M; Log10 Concentration −4.0): −18%
- Percent Growth (NCI-H322M; Log10 Concentration −5.0): 87%
- Percent Growth (NCI-H322M; Log10 Concentration −6.0): 105%
- Percent Growth (NCI-H322M; Log10 Concentration −7.0): 103%
- Percent Growth (NCI-H322M; Log10 Concentration −8.0): 106%
- GI50 (NCI-H522; Homo sapiens, NCI-H522): 1.64 µM
- CC50 (NCI-H522; Homo sapiens, NCI-H522, read-out: LC50): 9.29 µM
- IC (TGI) (NCI-H522; Homo sapiens, NCI-H522, read-out: TGI): 3.9 µM
- Percent Growth (NCI-H522; NCI-H522, Log10 Concentration −4.0): −69%
- Percent Growth (NCI-H522; NCI-H522, Log10 Concentration −5.0): −54%
- Percent Growth (NCI-H522; NCI-H522, Log10 Concentration −6.0): 76%
- Percent Growth (NCI-H522; NCI-H522, Log10 Concentration −7.0): 96%
- Percent Growth (NCI-H522; NCI-H522, Log10 Concentration −8.0): 95%
